The values below come from US20230278972A1, “SUBSTITUTED HALOALKYL SULFONANILIDE HERBICIDES” (FMC Corporation, priority 2020, published 2023).

Holding throughout (assay type): in vivo
In experiment [1] the test system is wheat (Triticum aestivum). Briefly: Test A1 preemergence, wheat. A digest of the protocol:
(§1)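 Both timings started from seed in a loam-sand blend. Preemergence pots got a directed soil application immediately; postemergence pots were sprayed when seedlings had one or two leaves and stood 2–10 cm. Each compound was prepared in a non-phytotoxic solvent plus surfactant.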

For experiment [2], the system named is Pigweed, Palmer (palmer amaranth, palmer pigweed, Amaranthus palmeri). Briefly: Test A1 preemergence, Pigweed, Palmer. The procedure, abridged: as §1
The subject of experiment [3] is Oat, Wild (wild oat, Avena fatua). The experiment can be described thus: Test A1 postemergence, Oat, Wild. To be noted: for Oat, Wild plant response rating: 31 g ai/ha, postemergence; for Plant response rating, Oat, Wild: Postemergence. A digest of the protocol: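 Pre: seeds in loam/sand blend, directed soil spray. Post: potted plants, same soil, 2–10 cm, 1–2 leaf stage. Chemicals in non-phytotoxic solvent + surfactant for both.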

The test system of experiment [4] is soybean (Glycine max). The experiment can be described thus: Test A1 preemergence, soybean. The procedure, abridged:
as §1

In experiment [5] the test system is Oat, Wild (wild oat, Avena fatua). The experiment can be described thus: Test A1 preemergence, Oat, Wild. The procedure, abridged:
as §1

Where [6] appears, read: 31 g ai/ha, 0 to 100 scale (0 no effect, 100 complete control).
The mark [7] stands for this setting: 125 g ai/ha, 0 to 100 scale, 0 no effect, 100 complete control.
Where [8] appears, read: 0 to 100 scale (0 no effect, 100 complete control).
The mark [9] stands for this setting: 125 g ai/ha, 0 to 100 scale (0 no effect, 100 complete control), 10 days.
[10] abbreviates: 500 g ai/ha, 0 to 100 scale (0 no effect, 100 complete control).
The mark [11] stands for this setting: 125 g ai/ha, 0 to 100 scale (0 no effect, 100 complete control).

Take `Cc1c(C2=NOC3(CCCC3)C2)cc(N(COC(=O)C(C)(C)C)S(=O)(=O)C(F)(F)F)c(C)c1C` [Compound 382]: the “Plant response rating, Wheat” value in experiment [1] (setting [6]) and in experiment [1] (setting [7]) was 20 each time. Also, the “Plant response rating, Pigweed, Palmer” value in experiment [2] (setting [6]) is given as 0; in experiment [2] (setting [7]) it was 20. In addition, the “Oat, Wild plant response rating” value in experiment [3] (setting [8]) was found to be 0. In addition, the entries for the “Plant response rating, Oat, Wild” value in experiment [3] (setting [9]), in experiment [5] (setting [6]) and in experiment [5] (setting [7]) were 0, 20 and 40, respectively. The “Plant response rating, Soybean” value in experiment [4] (setting [6]) and in experiment [4] (setting [7]) was 0 in each case.

Consider `Cc1cc(C)c(N(COC(=O)C(C)(C)C)S(=O)(=O)C(F)(F)F)cc1C1=NOC(C(C)C)C1` (stereo not drawn) [Compound 383], for which the “Plant response rating, Wheat” value in experiment [1] (setting [6]) and in experiment [1] (setting [7]) was 20 in each case. For the same compound, the “Plant response rating, Pigweed, Palmer” value in experiment [2] (setting [6]) and in experiment [2] (setting [7]) was 0 throughout. Besides, the “Oat, Wild plant response rating” value in experiment [3] (setting [8]) is on record as 0. Further, the entries for the “Plant response rating, Oat, Wild” value in experiment [3] (setting [9]), in experiment [5] (setting [6]) and in experiment [5] (setting [7]) were 10, 0 and 30, respectively. Further, the “Plant response rating, Soybean” value in experiment [4] (setting [6]) and in experiment [4] (setting [7]) was 0 each time.

`Cc1cc(C)c(N2CC3(CCCCC3)CC2=O)cc1NS(=O)(=O)C(F)(F)F` [Compound 392]: the “Plant response rating, Wheat” value was found to be 0 in experiment [1] (setting [6]) and 50 in experiment [1] (setting [7]). Further, the figures for the “Plant response rating, Pigweed, Palmer” value in experiment [2] (setting [6]) and in experiment [2] (setting [7]) were 0 and 20, respectively. Also, in experiment [3] (setting [8]), the “Oat, Wild plant response rating” value stood at 0. Besides, the figures for the “Plant response rating, Oat, Wild” value in experiment [3] (setting [9]), in experiment [5] (setting [6]) and in experiment [5] (setting [7]) were 0, 20 and 60, respectively. The “Plant response rating, Soybean” value in experiment [4] (setting [6]) and in experiment [4] (setting [7]) was 0 each time.

Turning to `Cc1cc(Cl)c(NS(=O)(=O)C(F)(F)F)cc1N1CCC2(CCCCC2)C1=O` [Compound 393], the figures for the “Plant response rating, Wheat” value in experiment [1] (setting [6]) and in experiment [1] (setting [7]) were 40 and 60, respectively. Moreover, the “Plant response rating, Pigweed, Palmer” value in experiment [2] (setting [6]) is on record as 30; in experiment [2] (setting [7]) it was 60. In addition, the “Oat, Wild plant response rating” value in experiment [3] (setting [8]) is given as 0. For the same compound, the “Plant response rating, Oat, Wild” value in experiment [3] (setting [9]) was 10; in experiment [5] (setting [6]) it was 10; in experiment [5] (setting [7]) it was 70. Moreover, the “Plant response rating, Soybean” value is 60 in experiment [4] (setting [6]) and 80 in experiment [4] (setting [7]).

`Cc1cc(Cl)c(NS(=O)(=O)C(F)(F)F)cc1N1CC2(CCCCC2)OC1=O` [Compound 394]: the “Plant response rating, Wheat” value in experiment [1] (setting [6]) amounted to 30; in experiment [1] (setting [7]), 70. Also, the “Plant response rating, Pigweed, Palmer” value is reported as 20 in experiment [2] (setting [6]) and 90 in experiment [2] (setting [7]). Also, the “Oat, Wild plant response rating” value in experiment [3] (setting [8]) turned out to be 0. Further, the entries for the “Plant response rating, Oat, Wild” value in experiment [3] (setting [9]), in experiment [5] (setting [6]) and in experiment [5] (setting [7]) were 0, 20 and 90, respectively. For the same compound, the “Plant response rating, Soybean” value came out at 50 in experiment [4] (setting [6]) and 60 in experiment [4] (setting [7]).

For the compound `Cc1cc(C)c(N(COC(=O)C(C)(C)C)S(=O)(=O)C(F)(F)F)cc1N1CCC2(CCC(F)(F)CC2)C1=O` [Compound 397], the “Plant response rating, Wheat” value turned out to be 20 in experiment [1] (setting [7]) and 100 in experiment [1] (setting [10]). Moreover, the “Plant response rating, Pigweed, Palmer” value in experiment [2] (setting [7]) was 90; in experiment [2] (setting [10]), 100. Further, the “Plant response rating, Oat, Wild” value in experiment [3] (setting [9]) is 10; in experiment [3] (500 g ai/ha, 0 to 100 scale), 0; in experiment [5] (setting [7]), 20; in experiment [5] (setting [10]), 90. Moreover, the “Plant response rating, Soybean” value in experiment [4] (setting [7]) is recorded as 40; in experiment [4] (setting [10]), 80.

On to `COC1CCC2(CC1)CCN(c1cc(NS(=O)(=O)C(F)(F)F)c(C)cc1C)C2=O` (stereo not drawn) [Compound 398], for which the “Plant response rating, Wheat” value was 20 in experiment [1] (setting [6]) and 90 in experiment [1] (setting [7]). Also, the “Plant response rating, Pigweed, Palmer” value in experiment [2] (setting [6]) worked out at 80; in experiment [2] (setting [7]) it was 100. In experiment [3] (setting [8]), the “Oat, Wild plant response rating” value was 0. Further, the “Plant response rating, Oat, Wild” value in experiment [3] (setting [9]) was 10; in experiment [5] (setting [6]), 20; in experiment [5] (setting [7]) it was 70. The results for the “Plant response rating, Soybean” value in experiment [4] (setting [6]) and in experiment [4] (setting [7]) were 70 and 90, respectively.

For `Cc1cc(C)c(N(S(=O)(=O)C(F)(F)F)S(=O)(=O)C(F)(F)F)cc1N1CCC2(CCC(C(F)(F)F)CC2)C1=O` (stereo not drawn) [Compound 399], the entries for the “Plant response rating, Wheat” value in experiment [1] (setting [6]) and in experiment [1] (setting [7]) were 0 and 20, respectively. Besides, the “Plant response rating, Pigweed, Palmer” value in experiment [2] (setting [6]) turned out to be 30; in experiment [2] (setting [7]), 60. For the same compound, the “Oat, Wild plant response rating” value in experiment [3] (setting [8]) was 10. Besides, the “Plant response rating, Oat, Wild” value in experiment [3] (setting [9]) is 40; in experiment [5] (setting [6]), 20; in experiment [5] (setting [7]), 40. The results for the “Plant response rating, Soybean” value in experiment [4] (setting [6]) and in experiment [4] (setting [7]) were 30 and 40, respectively.

Take `Cc1cc(C)c(N2CCC3(CCC(C(F)(F)F)CC3)C2=O)cc1NS(=O)(=O)C(F)(F)F` (stereo not drawn) [Compound 400]: the “Plant response rating, Wheat” value came to 10 in experiment [1] (setting [6]) and 80 in experiment [1] (setting [7]). Further, the “Plant response rating, Pigweed, Palmer” value in experiment [2] (setting [6]) was 50; in experiment [2] (setting [7]), 100. Further, the “Oat, Wild plant response rating” value in experiment [3] (setting [8]) was 0. Also, the “Plant response rating, Oat, Wild” value is recorded as 0 in experiment [3] (setting [9]), 50 in experiment [5] (setting [6]) and 90 in experiment [5] (setting [7]). Besides, the “Plant response rating, Soybean” value in experiment [4] (setting [6]) and in experiment [4] (setting [7]) was 50 throughout.

Turning to `Cc1cc(C)c(N2Cc3cccc(C)c3C2=O)cc1NS(=O)(=O)Cl` [Compound 408], in experiment [1] (setting [11]), the “Plant response rating, Wheat” value came out at 100. Besides, the “Plant response rating, Pigweed, Palmer” value in experiment [2] (setting [11]) is 60. The “Oat, Wild plant response rating” value in experiment [3] (setting [8]) came out at 70. Also, the “Plant response rating, Oat, Wild” value in experiment [3] (setting [9]) is 70; in experiment [5] (setting [11]) it was 100. In addition, in experiment [4] (setting [11]), the “Plant response rating, Soybean” value worked out at 50.

Take `COc1cccc2c1C(=O)N(c1cc(N(COC(=O)C(C)(C)C)S(=O)(=O)Cl)c(C)cc1C)C2` [Compound 413]: in experiment [1] (setting [11]), the “Plant response rating, Wheat” value came out at 0. Moreover, the “Plant response rating, Pigweed, Palmer” value in experiment [2] (setting [11]) came to 90. Also, the “Oat, Wild plant response rating” value in experiment [3] (setting [8]) came to 0. Moreover, the “Plant response rating, Oat, Wild” value in experiment [3] (setting [9]) and in experiment [5] (setting [11]) was 0 in each case. Further, in experiment [4] (setting [11]), the “Plant response rating, Soybean” value is recorded as 50.

`CCOc1cccc2c1C(=O)N(c1cc(N(COC(=O)C(C)(C)C)S(=O)(=O)Cl)c(C)cc1C)C2` [Compound 414]: the “Plant response rating, Wheat” value in experiment [1] (setting [11]) is recorded as 0. In addition, the “Plant response rating, Pigweed, Palmer” value in experiment [2] (setting [11]) is given as 40. In addition, the “Oat, Wild plant response rating” value in experiment [3] (setting [8]) was found to be 0. Besides, the “Plant response rating, Oat, Wild” value amounted to 0 in experiment [3] (setting [9]) and 30 in experiment [5] (setting [11]). In addition, the “Plant response rating, Soybean” value in experiment [4] (setting [11]) turned out to be 0.
